Legend:
[1] = tested on: SK-OV-3; assay: MTT cytotoxicity assay, SK-OV-3; type: cell-based, human; conditions: SK-OV-3, 72 hours
Procedure: (§1) The relative cytotoxicity of various compounds on tumor cell lines was investigated as follows. Cytotoxicity was measured by the MTT microculture tetrazolium colorimetric assay for all cell lines. The relative cytotoxicity of Na3 VO4 and VOSO4 was investigated using the following tumor cell lines: P388(WT) murine leukemia, P388 (ADR) murine leukemia, Lewis murine lung, MCF7 (WT) human breast, […] human lung, K562 human erythroleukemia, A431 human epidermal, LS180 human colon and SK-OV-3 human ovarian. The relative cytotoxicity of doxorubicin, Na3 VO4 and VOSO4 was investigated using the following tumor cell lines: P388(WT) murine leukemia, P388 (ADR) murine leukemia, MCF7(WT) human breast and MCF7 (ADR) human breast. The relative cytotoxicity of BMOV, BEOV and naglivan was investigated using the following tumor cell lines: P388(WT) murine leukemia, P388 (ADR) murine leukemia, Lewis murine lung, H460 human lung, K562 human erythroleukemia, and SK-OV-3 human ovarian.
(§2) The cells were plated (number of cells/well was different from cell line to cell depending on the dividing rate) in a 96-well microculture plate 24 hours prior to the delivery of the vanadium compounds. Serial concentrations of solutions of the test compounds (0.05-100 μM) were delivered to the corresponding wells. A blank column (without cells) and a control column (with cells without vanadium) were left. The cells were incubated for 72 hours continuously. An MTT solution was added to each well after this incubation period and the cells were incubated for 4 more hours for the completion of the dyeing process. The medium was removed find DMSO was added to each well. The absorbance of each well was read with a Titertek Multiskan (310C) spectrophotometer at 570 nm. The percentage of the absorbance of each vanadium concentration relative to the control calculated and the value of the 50% growth inhibition concentration (IC50) was obtained from the % control versus concentration plot. Each assay was repeated three times and the reported IC50 values were the mean of these three runs.

[2] = tested on: P388 (WT); assay: MTT cytotoxicity assay, P388 (WT); type: cell-based, murine; conditions: P388 (WT), 72 hours; read-out: IC50 Value
Procedure, shortened: (§3)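 Absorbance at 570 nm after 4 h MTT and DMSO solubilisation gave % of untreated control, from which IC50 was read off a concentration plot. Prior exposure: 72 h continuous, test compounds 0.05-100 μM, cells plated 24 h beforehand. Three repeats averaged.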

[3] = tested on: P388 (ADR); assay: MTT cytotoxicity assay, P388 (ADR); type: cell-based, murine; conditions: P388 (ADR), 72 hours; read-out: IC50 Value
Procedure, shortened: as §3

[4] = tested on: collagenase; assay: collagenase production by chondrocytes (ELISA); type: cell-based, bovine; conditions: for production of metalloproteases, such as collagenase: summary statement
Procedure, shortened: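 Bovine articular chondrocytes, orthovanadate 100 μM pretreatment 2 h, then IL 1 (10 ng/ml) or PMA ([…]). Collagenase by ELISA of medium after 24 h; PLA2 as 3H-AA released over 10 min in 1 mg/ml BSA medium; PGE2 by RIA of supernatant after 6 h in Ham's F12.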

[5] = tested on: K562; assay: MTT cytotoxicity assay, K562; type: cell-based, human; conditions: K562, 72 hours
Procedure: as §1
as §2, with “Serial concentrations of solutions of the test compounds (0.05-100 μM) were delivered to the corresponding wells.” left out

[6] = tested on: H460; assay: MTT cytotoxicity assay, H460; type: cell-based, human; conditions: H460, 72 hours
Procedure: as §1, §2

[7] = tested on: Lewis lung; assay: MTT cytotoxicity assay, Lewis lung; type: cell-based, murine; conditions: 72 hours
Procedure: as §1, §2

[8] = tested on: proliferating chondrocytes; assay: viability / proliferation of proliferating chondrocytes (low cell density); type: cell-based; conditions: for proliferation of cells, such as chondrocytes: summary statement
Procedure: In order to compare the effect of orthovanadate on non-proliferating and proliferating chondrocytes, chondrocytes were plated at both high cell density (2×10^6 to 4×10^6 cells/per well on a six well plate) (nonproliferating) and at a lower cell density (5×10^5 to 1×10^6 cells/per well on a six well plate) (proliferating) and then maintained for 48 hours. The cells were then incubated in media (HAMS F12) containing 0-50 μM Orthovanadate for an additional 48 hours. The cells were harvested and the number of viable cells determined.

[9] = tested on: jun; assay: jun / c-jun mRNA expression in chondrocytes (Northern blot); type: cell-based, bovine; conditions: 100 μM
Description: The cytokine interleukin 1 (IL 1) has been used to identify the intermediate second messengers which regulate the expression of fos and jun.
Although IL 1 stimulated superoxide production, it was not known whether IL 1 induced fos and jun expression was dependent on the production of superoxides. In order to elucidate this possibility, the effect of DPI on fos and jun mRNA levels induced by IL 1 was investigated. RNA from chondrocytes treated with IL 1 in the presence and absence of DPI were analyzed by Northern blot analysis using either fos or collagenase cDNA probes. […] Similar data has been obtained for IL 1 induced jun expression. Furthermore, inhibition of fos and jun expression by DPI was sufficient to suppress IL 1 induced and constitutive collagenase expression.
The effect of orthovanadate and N-acetylcysteine on fos, jun and collagenase expression were examined. Bovine articular chondrocytes were isolated and plated as previously described (Kandel R. A. et al. Biochim. Biophys. Acta. 1053, 130-134, 1990). In order to determine the effect of orthovanadate on IL 1 and PMA (phorbol ester) induced responses, chondrocytes were incubated with orthovanadate (100 μM) for 2 hours before stimulation with IL 1 (10 ng/ml) or PMA ([…]). Collagenase production was determined by incubating chondrocytes for 24 hours with IL 1 or PMA and the cell conditioned medium was assayed for collagenase activity using an ELISA procedure as described previously (Kandel et al. supra). PLA2 activity was measured by incorporating ^3 H-arachidonic acid (^3 H-AA) into the cells and then incubating the cells with medium containing 1 mg/ml BSA, either alone or in the presence of IL 1 or PMA, for 10 min. as previously described (Conquer, J. A. […], Biochim. Biophys. Acta. 1134, 1-6). The amount of ^3 H-AA liberated into the supernatant was determined. […] The supernatant was analyzed by RIA using an antibody specific for PGE2 (Dr. S. A. Jones, Mount Sinai Hospital, Toronto, Canada). […]

SMILES: Cc1occc(=O)c1[O-].Cc1occc(=O)c1[O-].[O]=[V+2] [BMOV, bis(methylmaltolato) oxovanadium (IV)]
- IC50 [1]: 2.6 µM
- IC50 [2]: 31.1 µM
- IC50 [3]: 61.2 µM
- production of metalloproteases, such as collagenase [4]: inhibit
- IC50 [5]: > 1000 µM
- IC50 [6]: 6.4 µM
- IC50 [7]: 142 µM
- proliferation of cells, such as chondrocytes [8]: inhibit

SMILES: [Na+].[Na+].[Na+].[O]=[V]([O-])([O-])[O-] [orthovanadate, sodium orthovanadate]
- inhibition of IL 1, PMA and AA induced c-jun expression [9]: completely inhibited
- IC50 [1]: 2 µM
- IC50 [2]: 5.5 µM
- IC50 [3]: 14.8 µM
- inhibition of collagenase production ([4]; 100 μM, IL 1 or PMA stimulated): completely inhibited
- production of metalloproteases, such as collagenase [4]: inhibit
- IC50 [5]: 100 µM
- IC50 [6]: 1.5 µM
- IC50 [7]: 42.3 µM
- toxicity to cells plated at low cell density ([8]; 0-50 μM, 48 hours): toxic
- proliferation of cells, such as chondrocytes [8]: inhibit
